Source: ChEMBL document CHEMBL1201862, “PubChem BioAssay data set” (2004)
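Protocol summary: plate cells (96-well), add compound at 5 concentrations, incubate 48 h, interpolate endpoints linearly. GI50 is the concentration that inhibits growth by half.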 Active and inactive are the calls of the source. Cut-off read from the data, not from the text of the source: active = GI50 up to about 1.1 µM and inactive = higher.

How the values were obtained:
Experiment in all cases: NCI-60 cell line screen, 48 h
K562 = test system: K562
SK-OV-3 = test system: SK-OV-3
M14 = test system: M14
RXF 393 = test system: RXF 393
HOP-92 = test system: HOP-92
PC-3 = test system: PC-3
SR = test system: SR
NCI-H460 = test system: NCI-H460
HOP-62 = test system: HOP-62
HL-60 = test system: HL-60
HCT-116 = test system: HCT-116
NCI-H522 = test system: NCI-H522
MDA-MB-231 = test system: MDA-MB-231
HCC 2998 = test system: HCC 2998
SF-539 = test system: SF-539
OVCAR-4 = test system: OVCAR-4
HT-29 = test system: HT-29
T47D = test system: T47D
OVCAR-8 = test system: OVCAR-8
MOLT-4 = test system: MOLT-4

Measured: GI50

CC1(C)c2ccccc2C(O)C12CCC(=O)CC2 (configuration not stated)
inactive: K562 > 100 µM | SK-OV-3 > 100 µM | M14 > 100 µM | RXF 393 14.5 µM | HOP-92 > 100 µM | PC-3 > 100 µM | SR > 100 µM | NCI-H460 > 100 µM | HOP-62 > 100 µM | HL-60 > 100 µM | HCT-116 9.2 µM | NCI-H522 > 100 µM | MDA-MB-231 > 100 µM | HCC 2998 > 100 µM | SF-539 > 100 µM | OVCAR-4 > 100 µM | HT-29 > 100 µM | T47D > 100 µM

COc1nncc2[nH]c(-c3ccccc3)cc12
inactive: K562 56.6 µM | SK-OV-3 > 100 µM | M14 86.7 µM | RXF 393 > 100 µM | HOP-92 > 100 µM | OVCAR-8 92.5 µM | PC-3 44.7 µM | SR 37.5 µM | NCI-H460 64.6 µM | HOP-62 > 100 µM | HL-60 30.9 µM | HCT-116 50.8 µM | MDA-MB-231 49.8 µM | HCC 2998 > 100 µM | SF-539 > 100 µM | OVCAR-4 93.5 µM | HT-29 > 100 µM | T47D 40.9 µM
active: MOLT-4 0.0652 µM

COc1nc(C)nc2c1ncn2Cc1ccccc1
inactive: K562 > 100 µM | SK-OV-3 > 100 µM | M14 > 100 µM | RXF 393 > 100 µM | OVCAR-8 > 100 µM | PC-3 > 100 µM | SR > 100 µM | NCI-H460 > 100 µM | HOP-62 > 100 µM | HL-60 > 100 µM | HCT-116 > 100 µM | NCI-H522 > 100 µM | MDA-MB-231 > 100 µM | HCC 2998 > 100 µM | SF-539 > 100 µM | OVCAR-4 > 100 µM | HT-29 > 100 µM | T47D > 100 µM
active: HOP-92 < 0.01 µM

O=CC(O)C(O)C(O)C(O)COC(=O)NCCCCC(=O)C(F)(F)C(F)(F)C(F)(F)C(F)(F)C(F)(F)C(F)(F)C(F)(F)F (configuration not stated)
inactive: K562 11.8 µM | SK-OV-3 21.7 µM | M14 23.7 µM | RXF 393 18.3 µM | HOP-92 13.2 µM | PC-3 14.3 µM | SR 28.2 µM | NCI-H460 26.9 µM | HOP-62 23.6 µM | HL-60 27.4 µM | HCT-116 18 µM | MOLT-4 10.7 µM | MDA-MB-231 20 µM | HCC 2998 24.5 µM | SF-539 19.8 µM | OVCAR-4 51.8 µM | HT-29 32.7 µM | T47D > 100 µM

Cc1ccc(/C=C2\CCCCCC2=O)cc1
active: HL-60 < 0.01 µM
inactive: K562 > 100 µM | SK-OV-3 > 100 µM | M14 > 100 µM | HOP-92 > 100 µM | PC-3 > 100 µM | SR > 100 µM | NCI-H460 > 100 µM | HOP-62 > 100 µM | HCT-116 > 100 µM | MOLT-4 > 100 µM | NCI-H522 > 100 µM | MDA-MB-231 > 100 µM | HCC 2998 > 100 µM | OVCAR-4 > 100 µM | HT-29 > 100 µM | T47D > 100 µM

CCOc1cc2c(cc1O)/C(=N/NS(=O)(=O)c1ccc(C)cc1)C[C@@H]1[C@@H]2CC[C@]2(C)[C@@H](O)CC[C@@H]12
inactive: SK-OV-3 10.5 µM | M14 3.21 µM | RXF 393 4.85 µM | HOP-92 8.65 µM | OVCAR-8 12.4 µM | PC-3 7.53 µM | NCI-H460 4.65 µM | MOLT-4 1.92 µM | NCI-H522 3.31 µM | MDA-MB-231 8.51 µM | HCC 2998 3.75 µM | SF-539 3.45 µM | OVCAR-4 4.78 µM | HT-29 2.89 µM | T47D 6.87 µM
active: K562 1.02 µM | SR 1.04 µM

CC(O)[C@@]1(c2ccccc2)CC2(CCN(C)CC2)O[C@H]1C (some centres not stated)
inactive: K562 > 100 µM | SK-OV-3 41 µM | M14 > 100 µM | RXF 393 > 100 µM | HOP-92 22.2 µM | OVCAR-8 > 100 µM | PC-3 > 100 µM | SR > 100 µM | NCI-H460 > 100 µM | HOP-62 > 100 µM | HL-60 26.2 µM | MOLT-4 > 100 µM | NCI-H522 > 100 µM | MDA-MB-231 > 100 µM | HCC 2998 > 100 µM | SF-539 > 100 µM | OVCAR-4 98.6 µM | HT-29 > 100 µM | T47D 33.9 µM
